Experiment [1] has as its system Arabidopsis overexpression line Arabidopsis M335H. The experiment is described as follows: Germination assay in 48-well plates. The class given is in vivo, Arabidopsis thaliana. The note with it: IC50 transgenic / wildtype, mean of 5 T2 events. As to the method:
(§1) Depending on the species, the plants are kept at 10-25° C. or 20-35° C. The test period extends over 3 weeks. During this time, the plants are tended and their response to the individual treatments is evaluated. Herbicide injury evaluations are taken at 2 and 3 weeks after treatment. Plant injury is rated on a scale of 0 to 9, 0 being no injury and 9 being complete death. Tolerance to HPPD-inhibiting, preferably pyrazolone, isoxazole, or triketone derivative herbicides can also be assessed in Arabidopsis. In this case transgenic Arabidopsis thaliana plants are assayed for improved tolerance to HPPD-inhibiting, preferably pyrazolone, isoxazole, or triketone derivative herbicides in 48-well plates. Seeds are surface sterilized by stirring for 5 min in ethanol+water (70+30 by volume), rinsing one time with ethanol+water (70+30 by volume) and two times with a sterile, deionized water. The seeds are resuspended in 0.1% agar dissolved in water (w/v). Four to five seeds per well are plated on solid nutrient medium consisting of half-strength Murashige Skoog nutrient solution, pH 5.8 (Murashige and Skoog (1962) Physiologia Plantarum 15: 473-497). Compounds are dissolved in dimethylsulfoxid (DMSO) and added to the medium prior solidification (final DMSO concentration 0.1%). Multi well plates are incubated in a growth chamber at 22° C., 75% relative humidity and 110 μmol Phot*m−2*s−1 with 14:10 h light:dark photoperiod. Seven to ten days after seeding growth inhibition is evaluated by comparison to wild type plants. Tolerance factor is calculated by dividing the plant growth IC50 value of transgenic plants containing a HPPD and/or HST sequence by that of wildtype plants.

In experiment [2] the test system is Arabidopsis overexpression line Arabidopsis M335H, P336A, E363Q. The experiment is described as follows: Germination assay in 48-well plates. The class given is in vivo, Arabidopsis thaliana. The note with it: IC50 transgenic / wildtype, mean of 5 T2 events. On the procedure: as §1
In experiment [3] the test system is Arabidopsis overexpression line Rhodococcus HPPD2. The experiment is described as follows: Germination assay in 48-well plates. The class given is in vivo, Arabidopsis thaliana. The note with it: IC50 transgenic / wildtype, mean of 5 T2 events. On the procedure: as §1
Experiment [4] has as its system Arabidopsis overexpression line Hordeum L320H, P321A. The experiment is described as follows: Germination assay in 48-well plates. The class given is in vivo, Arabidopsis thaliana. The note with it: IC50 transgenic / wildtype, mean of 5 T2 events. As to the method:
as §1

Experiment [5] deals with Arabidopsis overexpression line Picrophilus HPPD. Briefly: Germination assay in 48-well plates. Type of experiment: in vivo, Arabidopsis thaliana. The note with it: IC50 transgenic / wildtype, mean of 5 T2 events. As to the method:
as §1

The subject of experiment [6] is Arabidopsis overexpression line Hordeum L320Q. Briefly: Germination assay in 48-well plates. Type of experiment: in vivo, Arabidopsis thaliana. The note with it: IC50 transgenic / wildtype, mean of 5 T2 events. As to the method: as §1
In experiment [7] the test system is Arabidopsis overexpression line Arabidopsis F381I. The experiment is described as follows: Germination assay in 48-well plates. Type of experiment: in vivo, Arabidopsis thaliana. The note with it: IC50 transgenic / wildtype, mean of 5 T2 events. As to the method: as §1
For experiment [8], the system named is HPPD enzymes from different organisms. Briefly: HPPD activity assay, summary statement. Type of experiment: biochemical. The note with it: all HPPD enzymes from different organisms of Table 12. On the procedure: The activity assay for HPPD is based on the analysis of homogentisic acid by reversed phase HPLC.
The assay mixture can contain 150 mM potassium phosphate buffer pH 7.0, 50 mM L-ascorbic acid, 100 μM Catalase (Sigma-Aldrich), 1 μM FeSO4 and 0.2 units of purified HPPD enzyme in a total volume of 505 μl. 1 unit is defined as the amount of enzyme that is required to produce 1 nmol of HGA per minute at 20° C.
The reaction is allowed to proceed for 45 min at room temperature. The reaction is stopped by the addition of 50 μl of 4.5 M phosphoric acid. The sample is filtered using a […] pore size PVDF filtration device. 5 μl of the cleared sample is analyzed on an UPLC HSS T3 column (particle size 1.8 μm, dimensions 2, 1×50 mm; Waters) by isocratic elution using 90% 20 mM NaH2PO4 pH 2.2, 10% methanol (v/v).
HGA is detected electrochemically at 750 mV (mode: DC; polarity: positive) and quantified by integrating peak areas (Empower software; Waters).
Inhibitors are dissolved in DMSO (dimethylsulfoxide) to a concentration of 0.5 mM. From this stock solution serial five-fold dilutions are prepared in DMSO, which are used in the assay. The respective inhibitor solution accounts for 1% of the assay volume. Thus, final inhibitor concentrations range from 5 μM to 320 pM, respectively. […] IC50 values are calculated using non-linear regression. […]

As for `Cc1c(C(=O)c2cnn(C)c2O)ccc(S(C)(=O)=O)c1C1=NOCC1` [Inhibitor 1, [3-(4,5-dihydroisoxazol-3-yl)-2-methyl-4-methylsulfonyl-phenyl]-(5-hydroxy-1-methyl-pyrazol-4-yl)methanone], the Tolerance factor in experiment [1] is reported as 10; in experiment [2], 25; in experiment [3], 32; in experiment [4] it was 300; in experiment [5] it was 10; in experiment [6] it was 100. Further, in experiment [7], the Tolerance factor is 90. In addition, the “fold more resistant in respect to the reference SEQ ID NO:53” value in experiment [8] was “at least 1.7 fold”.
